Assay results from patent US7572765B2, “Conformationally constrained parathyroid hormone (PTH) analogs” (The General Hospital Corporation, priority 2001, dated 2009).
Square brackets hold non-standard residues; d marks the D form. Peptide text beside a SMILES is read from it. hArg = N=C(N)NCCCC[C@H](N)C(=O)O; Aib = CC(C)(N)C(=O)O

Legend:
[1] = molecular target: T1, wild-type human P1R (hP1R-WT) (Homo sapiens, UniProt Q03431); experiment: cAMP stimulation in COS-7 cells expressing hP1R-WT; type: cell-based; conditions: for EC50 / cAMP EMax(obs.): hP1R-WT; for cAMP EMax(obs.): basal 10.3 ± 1.1, asterisk = plateau not attained
T1 construct: expressed in transfected cells; host or cells: COS-7 (transient, FuGENE 6)
T1 sequence (Q03431 27-593): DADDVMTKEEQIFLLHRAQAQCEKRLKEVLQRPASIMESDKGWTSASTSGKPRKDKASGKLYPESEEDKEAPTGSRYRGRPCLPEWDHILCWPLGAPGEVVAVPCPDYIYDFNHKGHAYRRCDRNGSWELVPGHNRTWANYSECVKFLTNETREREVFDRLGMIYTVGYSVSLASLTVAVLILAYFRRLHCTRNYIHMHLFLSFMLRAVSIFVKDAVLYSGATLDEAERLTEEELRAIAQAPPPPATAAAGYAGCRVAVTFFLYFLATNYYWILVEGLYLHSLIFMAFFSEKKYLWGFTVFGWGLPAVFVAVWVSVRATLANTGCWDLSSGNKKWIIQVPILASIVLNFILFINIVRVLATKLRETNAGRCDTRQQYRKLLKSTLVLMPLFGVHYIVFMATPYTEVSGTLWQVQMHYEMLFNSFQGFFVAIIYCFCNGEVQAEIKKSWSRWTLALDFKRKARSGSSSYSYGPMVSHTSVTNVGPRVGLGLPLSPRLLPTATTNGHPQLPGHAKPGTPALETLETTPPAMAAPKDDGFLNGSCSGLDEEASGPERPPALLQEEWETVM
Protocol: (§1) Cell Culture. The cell line HKRK-B28 (Takasu, H., et al., J. Bone Miner. Res. 14:11-20 (1999)) was derived from the porcine kidney cell line, LLC-PK1 by stable transfection with plasmid DNA encoding the human P1R and expresses ˜280,000 receptors per cell. These cells, as well as COS-7 cells and SaOS-2-B10 cells, were cultured at […] in T-75 flasks ([…]) in Dulbecco's modified Eagle's medium (DMEM) supplemented with fetal bovine serum (10%), penicillin G (20 units/ml), streptomycin sulfate (20 μg/ml) and amphotericin B (0.05 μg/ml) in a humidified atmosphere containing 5% CO2. Stock solutions of EGTA/trypsin and antibiotics were from GIBCO; fetal bovine serum was from Hyclone Laboratories (Logan, Utah). COS-7 cells sub-cultured in 24-well plates were transfected with plasmid DNA (200 ng per well) encoding the wild-type human P1R or truncated human P1R deleted for residues (24-181) (Shimizu, M., et al., J. Biol. Chem. 275:21836-21843 (2000)) that was purified by cesium chloride/ethidium bromide density gradient centrifugation, and FuGENE 6 transfection reagent (Roche Indianapolis Ind.) according to the manufacturer's recommended procedure. All cells, in 24-well plates, were treated with fresh media and shifted to 33° C. for 12 to 24 h prior to assay.
(§2) cAMP Stimulation. Stimulation of cells with peptide analogs was performed in 24-well plates. Cells were rinsed with 0.5 mL of binding buffer (50 mM Tris-HCI, […], 5 mM KCl, 2 mM CaCl2, 5% heat-inactivated horse serum, 0.5% fetal bovine serum, adjusted to pH 7.5 with HCl) and treated with 200 μL of cAMP assay buffer (Delbecco's modified Eagle's medium containing 2 mM 3-isobutyl-1-methylxanthine, 1 mg/mL bovine serum albumin, 35 mM Hepes-NaOH, pH 7.4) and 100 μL of binding buffer containing varying amounts of peptide analog (final volume=300 μL). The medium was removed after incubation for 30 to 60 minutes at room temperature, and the cells were frozen on dry ice, lysed with 0.5 mL 50 mM HCl, and refrozen ([…]). The cAMP content of the diluted lysate was determined by radioimmunoassay. The EC50 response values were calculated using nonlinear regression (see below).
(§3) Data Calculation. Calculations were performed using Microsoft® Excel. Nonlinear regression analyses of binding and cAMP dose-response data were performed using the four-parameter equation: yp=Min+[(Max−Min)/(1+(IC50/x)^slope)]. The Excel Solver function was utilized for parameter optimization, as described previously (Carter, P. H., et al., Endocrinology 140: 4972-4981 (1999); Bowen, W. P., and Jerman, J. C., Trends in Pharmacol. Sci. 16: 413-417 (1995)). Differences between paired data sets were statistically evaluated using a one-tailed Student's t-test, assuming unequal variances for the two sets.

[2] = molecular target: T2, P1R-delNt, truncated human P1R deleted for residues (24-181) (Homo sapiens, UniProt Q03431); experiment: cAMP stimulation in COS-7 cells expressing hP1R-delNt; type: cell-based; conditions: for EC50 / cAMP EMax(obs.): hP1R-delNT; for cAMP EMax(obs.): basal 9.5 ± 1.3, asterisk = plateau not attained
T2 construct: expressed in transfected cells; host or cells: COS-7 (transient, FuGENE 6)
T2 sequence (Q03431 with tags, fused parts or gaps limits assumed): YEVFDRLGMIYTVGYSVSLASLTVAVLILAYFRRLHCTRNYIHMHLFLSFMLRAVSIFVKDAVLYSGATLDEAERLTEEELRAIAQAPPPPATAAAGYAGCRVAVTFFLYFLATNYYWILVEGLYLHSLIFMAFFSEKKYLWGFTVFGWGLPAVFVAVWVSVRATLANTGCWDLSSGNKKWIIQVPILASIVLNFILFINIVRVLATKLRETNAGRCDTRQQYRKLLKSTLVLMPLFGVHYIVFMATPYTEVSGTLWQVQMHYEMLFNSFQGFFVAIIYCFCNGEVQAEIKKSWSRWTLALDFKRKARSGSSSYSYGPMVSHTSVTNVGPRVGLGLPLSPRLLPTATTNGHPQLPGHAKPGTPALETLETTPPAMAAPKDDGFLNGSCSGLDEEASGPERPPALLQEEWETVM
Protocol: as §1, §2, §3
The possibility that the activity-enhancing effects of the Aib substitutions at positions 1 and 3 were mediated through the juxtamembrane (J) region of the receptor was investigated in COS-7 cells transiently transfected with P1R-delNt. P1R-delNt was a truncated P1R that lacked most of the amino-terminal extracellular domain.

Compound | cAMP EMax ([1]; P1R-WT) [picomole/well] | EC50 [1] [nM] | cAMP EMax(obs.) [1] [pmole/well] | cAMP potency, fold weaker on P1R-delNt than P1R-WT [2] [fold] | EC50 [2] [nM] | cAMP EMax(obs.) [2] [pmole/well] | cAMP EMax ([2]; P1R-delNt) [picomole/well] | cAMP potency, fold more potent than [M]PTH(1-14) ([2]; P1R-delNt) [fold]
CCCC[C@H](NC(=O)[C@H](CCCNC(=N)N)NC(=O)[C@H](CCC(=O)O)NC(=O)[C@@H](NC(=O)[C@H](CO)NC(=O)[C@H](C)NC(=O)[C@H](CC(C)C)NC(=O)[C@H](Cc1c[nH]cn1)NC(=O)[C@H](CCCCN)NC(=O)CNC(=O)[C@H](CC(C)C)NC(=O)[C@H](CC(N)=O)NC(=O)[C@H](Cc1c[nH]cn1)NC(=O)[C@H](CCCC)NC(=O)[C@H](CC(C)C)NC(=O)[C@H](CCC(N)=O)NC(=O)[C@@H](NC(=O)[C@H](CCC(=O)O)NC(=O)[C@H](CO)NC(=O)[C@@H](NC(=O)[C@H](C)N)C(C)C)[C@@H](C)CC)C(C)C)C(=O)N[C@@H](CCC(N)=O)C(=O)N[C@@H](Cc1c[nH]c2ccccc12)C(=O)N[C@@H](CC(C)C)C(=O)N[C@@H](CCCNC(=N)N)C(=O)N[C@@H](CCCCN)C(=O)N[C@@H](CCCCN)C(=O)N[C@@H](CC(C)C)C(=O)N[C@@H](CCC(N)=O)C(=O)N[C@@H](CC(=O)O)C(=O)N[C@H](C(=O)N[C@@H](Cc1c[nH]cn1)C(=O)N[C@@H](CC(N)=O)C(=O)N[C@@H](Cc1ccc(O)cc1)C(N)=O)C(C)C [PTH(1-34), [Nle^8,21, Tyr^34]PTH(1-34)amide, reference compound] | 240±50 | 1.4 ± 0.7 | 240 ± 50 | ~500 | 680 ± 110 | 220 ± 30 |  | 
CC[C@H](C)[C@H](NC(=O)[C@H](CCC(=O)O)NC(=O)C(C)(C)NC(=O)[C@@H](NC(=O)C(C)(C)N)C(C)C)C(=O)N[C@@H](CCC(N)=O)C(=O)N[C@@H](CC(C)C)C(=O)N[C@@H](CCSC)C(=O)N[C@@H](Cc1c[nH]cn1)C(=O)N[C@@H](CCC(N)=O)C(N)=O [[Aib^1,3,M]PTH(1-10), [Aib^1,3,Gln^10]PTH(1-10)] (H-[Aib]V[Aib]EIQLMHQ-NH2) |  |  | 120 ± 10 |  |  | 84 ± 4 |  | 
H-AVSEIQLMHNLGKH-NH2 [PTH(1-14), reference compound] |  |  | 140 ± 30 |  |  | 110 ± 10 |  | 

Results, then the compound that gave them:

cAMP EMax ([1]; P1R-WT) [picomole/well] | EC50 [1] [nM] | cAMP EMax(obs.) [1] [pmole/well] | cAMP potency, fold weaker on P1R-delNt than P1R-WT [2] [fold] | EC50 [2] [nM] | cAMP EMax(obs.) [2] [pmole/well] | cAMP EMax ([2]; P1R-delNt) [picomole/well] | cAMP potency, fold more potent than [M]PTH(1-14) ([2]; P1R-delNt) [fold] | Compound
 |  | 190 ± 40 |  |  | 220 ± 20 |  |  | CC[C@H](C)[C@H](NC(=O)[C@H](CCC(=O)O)NC(=O)C(C)(C)NC(=O)[C@@H](NC(=O)C(C)(C)N)C(C)C)C(=O)N[C@@H](CCC(N)=O)C(=O)N[C@@H](CC(C)C)C(=O)N[C@@H](CCSC)C(=O)N[C@@H](Cc1c[nH]cn1)C(=O)N[C@@H](CCC(N)=O)C(=O)N[C@@H](CCCCNC(=N)N)C(N)=O [[Aib^1,3,M]PTH(1-11), AibValAibGluIleGlnLeuMetHisGlnHar] (H-[Aib]V[Aib]EIQLMHQ[hArg]-NH2)
 | 1.2 ± 0.6 | 240 ± 40 |  | 0.73 ± 0.16 | 250 ± 20 | 250±20 | 55 | CC[C@H](C)[C@H](NC(=O)[C@H](CCC(=O)O)NC(=O)C(C)(C)NC(=O)[C@@H](NC(=O)C(C)(C)N)C(C)C)C(=O)N[C@@H](CCC(N)=O)C(=O)N[C@@H](CC(C)C)C(=O)N[C@@H](CCSC)C(=O)N[C@@H](Cc1c[nH]cn1)C(=O)N[C@@H](CCC(N)=O)C(=O)N[C@@H](CCCCNC(=N)N)C(=O)N[C@@H](C)C(=O)N[C@@H](CCCCN)C(=O)N[C@@H](Cc1c[nH]c2ccccc12)C(N)=O [[Aib^1,3,M]PTH(1-14), AibValAibGluIleGlnLeuMetHisGlnHarAlaLysTrp] (H-[Aib]V[Aib]EIQLMHQ[hArg]AKW-NH2)
 |  | 240 ± 50 |  |  | 220 ± 20 |  |  | CC[C@H](C)[C@H](NC(=O)[C@H](CCC(=O)O)NC(=O)[C@H](C)NC(=O)[C@@H](NC(=O)[C@H](C)N)C(C)C)C(=O)N[C@@H](CCC(N)=O)C(=O)N[C@@H](CC(C)C)C(=O)N[C@@H](CCSC)C(=O)N[C@@H](Cc1c[nH]cn1)C(=O)N[C@@H](CCC(N)=O)C(=O)N[C@@H](CCCCNC(=N)N)C(=O)N[C@@H](C)C(=O)N[C@@H](CCCCN)C(=O)N[C@@H](Cc1c[nH]c2ccccc12)C(N)=O [[M]PTH(1-14), [Ala^3,12,Gln^10,Har^11,Trp^14]PTH(1-14)amide, reference compound] (H-AVAEIQLMHQ[hArg]AKW-NH2)
